The source of these data is ChEMBL document CHEMBL5729293, “Inhibitors of KEAP1-Nrf2 protein-protein interaction” (2022).

Some results are limits rather than exact numbers.

For orientation: Kd means a measure of binding affinity in units of concentration.

A short description of the assay: Fluorescence Based Assay: The details of the KEAP1 KELCH ThermoFluor® Assay Construct are as follows: Kelch domain of human KEAP 1 (321-624 aa) was used in the assay. The protein was expressed in E. coli with 6His tag that was cleaved prior to receipt for use.ThermoFluor® experiments were carried out using instruments owned by Janssen Research and Discovery, L.L.C. through its acquisition of 3-Dimensional Pharmaceuticals, Inc. 1,8-ANS (Invitrogen) was used as a fluorescent dye. Protein (KEAP Kelch) and compound solutions were dispensed into black 384-well polypropylene PCR microplates (Abgene) and overlayed with silicone oil (1 μL, Fluka, type DC 200) to prevent evaporation.Reference wells contained KEAP Kelch without compounds, and the assay conditions were as follows: 1.1 μM (0.037mg/mL) KEAP Kelch, 80 μM 1,8-ANS, 25 mM PIPES, pH 7.0, 100 mM NaCl, 0.002% Tween-20. In general terms: Differential scanning fluorimetry follows unfolding on heating by fluorescence.
`Cc1ccc([C@@H](c2ccn3c(C(F)(F)F)nnc3c2C)C(C)(C)C(=O)O)cc1CN1CC2(CCOCC2)Oc2nc(N[C@@H](C)CCO)ccc2S1(=O)=O` had an equilibrium dissociation constant (Kd) of under 1 nM.
Then `Cc1ccc(C(CC(=O)O)c2ccn3c(C(F)(F)F)nnc3c2C)cc1CN1CC2(COC2)Oc2ccccc2S1(=O)=O` (stereo unspecified), with under 1 nM; and `Cc1ccc([C@@H](CC(=O)O)c2ccn3c(C(F)F)nnc3c2C)cc1CN1C[C@H]2CCCN2c2ncc(C#N)cc2S1(=O)=O`, with under 1 nM.
`Cc1ccc([C@@H](CC(=O)O)c2ccn3c(C)nnc3c2)cc1CN1C[C@H]2CCCN2c2ccccc2S1(=O)=O` showed a Kd of under 1 nM.
The compound `Cc1ccc([C@H](CC(=O)O)c2ccn3c(C(F)(F)F)nnc3c2C)nc1CN1CC2(CC2)Oc2ncc(F)cc2S1(=O)=O` came in with a Kd of under 1 nM.
Then `Cc1ccc([C@H](CC(=O)O)c2ccn3c(C(F)F)nnc3c2C)cc1CN1CC2(CCOCC2)Oc2ncc(F)cc2S1(=O)=O`, with under 1 nM.
In the case of `CCn1nnc2c(C)c([C@H](CC(=O)O)c3ccc(C)c(CN4CC5(COC5)Oc5ncccc5S4(=O)=O)n3)ccc21` it was under 1 nM.
Then `Cc1ccc([C@@H](CC(=O)O)c2ccn3c(C(F)F)nnc3c2C)cc1CN1C[C@@H]2CCCCN2c2ncc(C#N)cc2S1(=O)=O`, with under 1 nM.
As for `Cc1ccc([C@H](CC(=O)O)c2ccc3c(nnn3CC3CC3)c2C)cc1CN1C[C@H]2CCCN2c2ncccc2S1(=O)=O`, the dissociation constant Kd is under 1 nM.
Then `Cc1ccc([C@@H](CC(=O)O)c2ccn3c(C(F)(F)F)nnc3c2C)cc1CN1C[C@H]2CCCN2c2ncccc2S1(=O)=O`, with under 1 nM.
In the case of `Cc1ccc(C(CC(=O)O)c2ccn3c(C(F)(F)F)nnc3c2C)nc1CN1C[C@@H]2CCCCN2c2ncc(F)cc2S1(=O)=O` (stereo partly specified) it was under 1 nM.
The compound `Cc1ccc([C@H](CC(=O)O)c2ccn3c(C(F)F)nnc3c2C)cc1CN1CC2(CC2)Oc2ncccc2S1(=O)=O` gave a Kd of under 1 nM.
The compound `Cc1ccc(C(CC(=O)O)c2ccn3c(C(F)F)nnc3c2C)cc1CN1C[C@@H]2CCCN2c2ncc(C#N)cc2S1(=O)=O` (stereo partly specified) showed a dissociation constant (Kd) of under 1 nM.
Then `Cc1cc2cc([C@H](CC(=O)O)c3ccc(C)c(CN4C[C@H]5CCCN5c5ncccc5S4(=O)=O)c3)n(C)c2nn1`, with under 1 nM.
In the case of `CCn1nnc2c(C)c(C(CC(=O)O)c3ccc(C)c(CN4C[C@H]5CCCCN5c5ncccc5S4(=O)=O)n3)ccc21` (stereo partly specified) it was under 1 nM; in that of `CC[C@@H]1CN(Cc2cc([C@@H](CC(=O)O)c3cc(OC(F)F)c4c(c3)nnn4C)ccc2C)S(=O)(=O)c2cccnc2O1`, under 1 nM.
The compound `Cc1cnc([C@@H](c2ccn3c(C(F)F)nnc3c2C)C(C)(C)C(=O)O)cc1CN1CC2(CCOCC2)Oc2nc(OCCN3CCCCC3)c(C)cc2S1(=O)=O` yielded a Kd of under 1 nM.
Take `CC[C@@H]1CN(Cc2nc([C@H](CC(=O)O)c3ccc4c(nnn4C4CC4)c3C)ccc2C)S(=O)(=O)c2cccnc2O1`: the Kd was under 1 nM.
Then `Cc1ccc(C(CC(=O)O)c2ccc3c(nnn3C3CC3)c2C)cc1CN1C[C@H]2CCCN2c2ncccc2S1(=O)=O` (stereo partly specified), with under 1 nM; and `Cc1cnc2c(c1)S(=O)(=O)N(Cc1cc([C@@H](CC(=O)O)c3ccn4c(C(F)(F)F)nnc4c3C)ccc1C)CC1(CC1)O2`, with under 1 nM; and `Cc1ccc(C(CC(=O)O)c2ccn3c(C(F)(F)F)nnc3c2C)nc1CN1CC2CCCCN2c2ncc(C#N)cc2S1(=O)=O` (stereo unspecified), with under 1 nM.
In the case of `Cc1ccc([C@H](CC(=O)O)c2ccn3c(C4CC4)nnc3c2C)cc1CN1CC2(CC2)Oc2ncc(F)cc2S1(=O)=O` it was under 1 nM; in that of `Cc1ccc([C@@H](c2ccn3c(C4CC4)nnc3c2C)C(C)(C)C(=O)O)cc1CN1CC2(CCOCC2)Oc2ncccc2S1(=O)=O`, under 1 nM.
`Cc1ccc([C@H](CC(=O)O)c2ccn3c(C(F)F)nnc3c2C)cc1CN1C[C@@H]2COCCN2c2ncccc2S1(=O)=O` showed a Kd of under 1 nM.
Then `Cc1cnc2c(c1)S(=O)(=O)N(Cc1cc([C@H](c3ccn4c(C(F)(F)F)nnc4c3)C(C)(C)C(=O)O)ccc1C)CC1(CC1)O2`, with under 1 nM; and `Cc1ccc([C@H](CC(=O)O)c2ccn3c(C(F)(F)F)nnc3c2C)nc1CN1CC2(COC2)Oc2ncccc2S1(=O)=O`, with under 1 nM.
Then `Cc1cnc2c(c1)S(=O)(=O)N(Cc1cc([C@@H](c3ccn4c(C(F)(F)F)nnc4c3C)C(C)(C)C(=O)O)ccc1C)CC1(CNC1)O2`, with under 1 nM.
In the case of `CCn1nnc2c(C)c([C@@H](CC(=O)O)c3ccc(C)c(CN4CC5(CC5)Oc5ncccc5S4(=O)=O)n3)ccc21` it was under 1 nM; in that of `Cc1ccc([C@H](CC(=O)O)c2ccn3c(C(F)F)nnc3c2C)cc1CN1CC2(COC2)Oc2ncccc2S1(=O)=O`, under 1 nM.
For the compound `Cc1ccc([C@@H](c2ccn3c(C(F)F)nnc3c2C)C(C)(C)C(=O)O)nc1CN1CC2(CCOCC2)Oc2nc(OCCN3CCCC3)c(C)cc2S1(=O)=O`, the Kd was under 1 nM.
Then `Cc1ccc(C(CC(=O)O)c2ccc3c(nnn3CC3CC3)c2C)cc1CN1C[C@H]2CCCN2c2ncccc2S1(=O)=O` (stereo partly specified), with under 1 nM; and `Cc1ccc(C(CC(=O)O)c2ccn3c(C(F)F)nnc3c2C)cc1CN1CC2(CC2)Oc2ncc(Cl)cc2S1(=O)=O` (stereo unspecified), with under 1 nM; and `Cc1ccc([C@@H](CC(=O)O)c2ccn3c(C(F)(F)F)nnc3c2C)nc1CN1C[C@H]2CCCCN2c2ncc(Cl)cc2S1(=O)=O`, with under 1 nM.
Then `CCn1nnc2c(C)c([C@H](CC(=O)O)c3ccc(C)c(CN4CC5(COC5)Oc5ccccc5S4(=O)=O)n3)ccc21`, with under 1 nM; and `Cc1ccc([C@@H](c2cc(C)n3c(C(F)(F)F)nnc3c2C)C(C)C(=O)O)cc1CN1C[C@@H]2CCCCN2c2ncccc2S1(=O)=O` (stereo partly specified), with under 1 nM.
Then `Cc1ccc([C@H](CC(=O)O)c2ccc3c(nnn3C3CC3)c2C)cc1CN1C[C@H]2CCCN2c2ncccc2S1(=O)=O`, with under 1 nM; and `CCn1nnc2c(C)c(C(CC(=O)O)c3ccc(C)c(CN4C[C@H]5CCCN5c5ncccc5S4(=O)=O)n3)ccc21` (stereo partly specified), with under 1 nM.
`Cc1ccc([C@H](CC(=O)O)c2ccn3c(C(F)(F)F)nnc3c2C)nc1CN1C[C@H]2CCCCN2c2ncc(C#N)cc2S1(=O)=O` had a Kd of under 1 nM.
In the case of `Cc1ccc(C(CC(=O)O)c2ccc3c(nnn3C3CC3)c2C)cc1CN1C[C@]2(C)CCCN2c2ncccc2S1(=O)=O` (stereo partly specified) it was under 1 nM; in that of `Cc1ccc([C@H](c2ccn3c(C(F)(F)F)nnc3c2C)C(C)(C)C(=O)O)cc1CN1CC2(CCOCC2)Oc2nc(OCC(=O)NCCO)ccc2S1(=O)=O`, under 1 nM.
In the case of `Cc1ccc([C@@H](CC(=O)O)c2cc(OC3CC3)c3c(c2)nnn3C)cc1CN1C[C@H]2CCCCN2c2ncccc2S1(=O)=O` it was under 1 nM.
Then `Cc1ccc([C@H](CC(=O)O)c2ccn3c(C(F)(F)F)nnc3c2C)nc1CN1CC2(CC2)Oc2ncccc2S1(=O)=O`, with under 1 nM; and `CCn1nnc2c(C)c([C@H](CC(=O)O)c3ccc(C)c(CN4C[C@H]5CCCCN5c5ncccc5S4(=O)=O)n3)ccc21`, with under 1 nM.
In the case of `Cc1ccc([C@@H](CC(=O)O)c2ccc3c(nnn3CC3CC3)c2C)cc1CN1C[C@H]2CCCN2c2ncccc2S1(=O)=O`, the Kd was under 1 nM.
`Cc1ccc([C@H](CC(=O)O)c2ccc3c(nnn3CC3CC3)c2C(F)F)cc1CN1C[C@H]2CCCCN2c2ncccc2S1(=O)=O` had a dissociation constant Kd of under 1 nM.
Compound `Cc1ccc(C(CC(=O)O)c2cc(OC3CC3)c3c(c2)nnn3C)cc1CN1C[C@H]2CCCCN2c2ncccc2S1(=O)=O` (stereo partly specified) showed a Kd of under 1 nM.
